The source of these data is patent US20210038554A1, “DIETARY BUTYRATE” (SOCIETE DES PRODUITS NESTLE S.A., priority 2018, published 2021).

The structures appear in SMILES notation.

In series [1] the target is T1, porcine pancreatic lipase (from pancreatin) (Sus scrofa, UniProt P00591).
T1 construct: pancreatin (Porcine, USP×8, P7585); purchased Sigma-Aldrich P7585; host or cells: porcine pancreas extract (pancreatin)
T1 sequence (P00591 1-450): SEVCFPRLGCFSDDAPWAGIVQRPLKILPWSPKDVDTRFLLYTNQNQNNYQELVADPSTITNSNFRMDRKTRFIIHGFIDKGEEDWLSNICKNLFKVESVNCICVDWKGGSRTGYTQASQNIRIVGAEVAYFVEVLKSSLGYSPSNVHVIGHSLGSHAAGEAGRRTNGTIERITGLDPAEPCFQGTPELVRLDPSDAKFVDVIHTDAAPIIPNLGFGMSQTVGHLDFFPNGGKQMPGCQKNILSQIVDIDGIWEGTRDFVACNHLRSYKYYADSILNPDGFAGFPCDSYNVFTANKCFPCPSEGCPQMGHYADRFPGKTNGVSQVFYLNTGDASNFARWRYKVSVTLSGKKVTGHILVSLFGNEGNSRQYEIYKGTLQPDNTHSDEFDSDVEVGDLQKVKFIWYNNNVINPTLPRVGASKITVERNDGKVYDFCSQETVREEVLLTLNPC
T1 sequence (P02703 23-112 partner): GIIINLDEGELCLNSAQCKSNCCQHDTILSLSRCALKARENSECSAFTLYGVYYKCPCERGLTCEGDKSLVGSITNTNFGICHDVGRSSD
Put plainly: In vitro digestion, simulated intestinal fluid (SIF) model, pH-stat. Format: in vitro ADME. The conditions noted are these: SIF alone; 200 mg fat emulsion, pH 6.8, 37° C.
Procedure: (§1) The lipid emulsion (2 mL) containing 200 mg of fat was subjected to gastrointestinal in vitro lipolysis. […] For gastric digestion, the sample was incubated for 90 minutes with 8.5 mL of simulated gastric fluid (SGF), which consisted of 150 mM NaCl, 450 U/mL pepsin, 18 U/mL rabbit gastric lipase at 37° C. and a pH of 5.5.
The intestinal digestion step was performed in the pH stat where the pH was kept constant at 6.8 by addition of NaOH (0.05 M). […] The intestinal digestion step starts when the temperature reaches 37±0.5° C. The pH was adjusted to pH 6.8 and after incubation of two minutes at this pH and temperature, a pancreatin solution (5 mM tris, 150 mM NaCl at pH 6.8) was added. […] During the intestinal phase of digestion, the kinetics of digestion were followed using a pH-stat (TIM856, Radiometer) technique and expressed as titratable acid (rather than fatty acid) that was calculated by the equation: […]
(§2) Since the digestion of dietary lipids involves lipases of both gastric and intestinal origin, lipid digestibility was assessed using two digestion models i) simulated intestinal fluid (SIF) with porcine pancreatic lipase (PPL) and ii) sequential digestion in simulated gastric fluid (SGF) with rabbit gastric lipase (RGL) followed by simulated intestinal fluid (SIF) with porcine pancreatic lipase (PPL).

Series [2] deals with rabbit gastric lipase (RGL) followed by porcine pancreatic lipase (PPL). Put plainly: In vitro sequential digestion SGF followed by SIF, pH-stat. Type of series: in vitro ADME.
Procedure: as §1
The intestinal digestion step was performed in the pH stat where the pH was kept constant at 6.8 by addition of NaOH (0.05 M). […] The intestinal digestion step starts when the temperature reaches 37±0.5° C. The pH was adjusted to pH 6.8 and after incubation of two minutes at this pH and temperature, a pancreatin solution (5 mM tris, 150 mM NaCl at pH 6.8) was added. The final composition of the intestinal fluid was 10 mM CaCl2), 12 mM mixed bile salts, 0.75 mM phospholipid, 150 mM NaCl and 4 mM tris(hydroxymethyl)aminomethane buffer. The intestinal digestion step was carried out for 3 hours in a titration manager from Radiometer. During the intestinal phase of digestion, the kinetics of digestion were followed using a pH-stat (TIM856, Radiometer) technique and expressed as titratable acid (rather than fatty acid) that was calculated by the equation:
TA: Total titratable acid released, mmol; VNaOH: volume of NaOH used to titrate the released acid in 3 h, mL.
as §2

In the case of `CCCC(=O)OCC(COC(=O)CCC)OC(=O)CCC` [tributyrin], the “initial rate of lipolysis” value in series [1] was 223 ± 59 µmol/min. Further, the “initial lipolysis rate in SIF after SGF” value in series [2] (SGF-SIF sequential digestion, 200 mg fat emulsion) was 44.1 ± 8.8 µmol/min. Further, the “extent of hydrolysis in the stomach (gastric lipolysis)” value in series [2] (in words) is on record as “extensive hydrolysis in the stomach”. For the same compound, the “lipolysis by gastric lipase” value in series [2] (indicated by decreased total fatty acid release in SIF after RGL in SGF) was about 60%.
